Data published in patent US11021457B2, “Class of isoindolone-imide ring-1,3-dione-2-ene compounds, composition and use thereof” (WIGEN BIOMEDICINE TECHNOLOGY (SHANGHAI) CO., LTD., priority 2017, dated 2021).
Where two headings read alike, the source gives them in different places.

Assays:
[1] = tested on: MDA-MB-453; experiment: Inhibition of tumor cell proliferation, CellTiter-Glo, MDA-MB-453; type: cell-based; conditions: compound concentration 50 μM, 72 hours; for cell survival rate (%) at 50 µM: Homo sapiens, MDA-MB-453, read-out: Inhibitory activity against proliferation (cell survival rate) MDA-MB-453
Summary of the method: (§1)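 Compound tested at 50 μM for 72 h, read by CellTiter-Glo. Survival rate = (treated−blank)/(control−blank) RLU ×100, binned as +++ ≤30%, ++ >30-≤60%, + 60-<90%. Seeding 2000-10000 cells/well depending on growth rate.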

[2] = tested on: SU-DHL6; experiment: Inhibition of tumor cell proliferation, CellTiter-Glo, SU-DHL6; type: cell-based; conditions: compound concentration 50 μM, 72 hours; for cell survival rate (% of control) at 50 µM: Homo sapiens, SU-DHL-6, read-out: Inhibitory activity against proliferation (cell survival rate) SU-DHL6
Summary of the method: as §1

[3] = tested on: RPMI-8226; experiment: Inhibition of tumor cell proliferation, CellTiter-Glo, RPMI-8226; type: cell-based; conditions: compound concentration 50 μM, 72 hours; for cell survival rate (% of control) at 50 µM: Homo sapiens, RPMI-8226, read-out: Inhibitory activity against proliferation (cell survival rate) RPMI-8226
Summary of the method: as §1

[4] = tested on: K562; experiment: Inhibition of tumor cell proliferation, CellTiter-Glo, K562; type: cell-based; conditions: compound concentration 50 μM, 72 hours; for cell survival rate (%) at 50 µM: Homo sapiens, K562, read-out: Inhibitory activity against proliferation (cell survival rate) K562
Summary of the method: as §1

[5] = tested on: BxPC-3; experiment: Inhibition of tumor cell proliferation, CellTiter-Glo, BxPC-3; type: cell-based; conditions: compound concentration 50 μM, 72 hours; for cell survival rate (%) at 50 µM: Homo sapiens, BXPC-3, read-out: Inhibitory activity against proliferation (cell survival rate) BxPC-3
Summary of the method: as §1

[6] = tested on: A549; experiment: Inhibition of tumor cell proliferation, CellTiter-Glo, A549; type: cell-based; conditions: compound concentration 50 μM, 72 hours; for cell survival rate (% of control) at 50 µM: Homo sapiens, A549, read-out: Inhibitory activity against proliferation (cell survival rate) A549
Summary of the method: as §1

[7] = biological target: LC3B (Homo sapiens (Human), UniProt Q9GZQ8); experiment: Fluorescence polarization experiment targeting LC3B (GST-LC3B with FITC-labeled peptide)
[8] = GST-LC3B 180 nM, FITC-labeled peptide 18 nM, 25° C.

SMILES	Inhibitory activity against proliferation (cell survival rate) MDA-MB-453 [1]	Inhibitory activity against proliferation (cell survival rate) SU-DHL6 [2]	Inhibitory activity against proliferation (cell survival rate) RPMI-8226 [3]	Inhibitory activity against proliferation (cell survival rate) K562 [4]	Inhibitory activity against proliferation (cell survival rate) BxPC-3 [5]	Inhibitory activity against proliferation (cell survival rate) A549 [6]	IC50 [7, 8]	cell survival rate (%) at 50 µM [1]	cell survival rate (% of control) at 50 µM [2]	cell survival rate (% of control) at 50 µM [3]	cell survival rate (%) at 50 µM [4]	cell survival rate (%) at 50 µM [5]	cell survival rate (% of control) at 50 µM [6]	IC50 [7]
O=C1CCC(N2Cc3c(NC=C4C(=O)CC(c5c(F)c(Cl)cc(Cl)c5Cl)CC4=O)cccc3C2=O)C(=O)N1 (stereo not drawn) [Compound 154]	+++ (survival rate (%)≤30)	+++ (survival rate (%)≤30)	+++ (survival rate (%)≤30)	+++ (survival rate (%)≤30)	+ (60≤survival rate (%)<90)	+ (60≤survival rate (%)<90)	< 3 µM							
O=C1CCC(N2Cc3c(NC=C4C(=O)CCCC4=O)cccc3C2=O)C(=O)N1 (stereo not drawn) [Compound 132]								60 to 90%	≤ 30%	≤ 30%	30 to 60%	30 to 60%	60 to 90%	100 to 1000 µM
O=C1CCC(N2Cc3c(NC(=O)CCCCNC=C4C(=O)CC(c5ccccc5)CC4=O)cccc3C2=O)C(=O)N1 (stereo not drawn) [Compound 46]	+++ (survival rate (%)≤30)	+ (60≤survival rate (%)<90)	++ (30<survival rate (%)≤60)	++ (30<survival rate (%)≤60)	+ (60≤survival rate (%)<90)	+++ (survival rate (%)≤30)	100 to 1000 µM							
CCOC(=O)C1C(=O)C(=CNc2cccc3c2CN(C2CCC(=O)NC2=O)C3=O)C(=O)CC1c1cccc2[nH]ccc12 (stereo not drawn) [Compound 25]								60 to 90%	60 to 90%	60 to 90%	60 to 90%	60 to 90%	60 to 90%	< 3 µM
CCC(=O)/C(=C/Nc1cccc2c1CN(C1CCC(=O)NC1=O)C2=O)C(=O)CCc1ccccc1 (stereo not drawn) [Compound 128]	+++ (survival rate (%)≤30)	+++ (survival rate (%)≤30)	+++ (survival rate (%)≤30)	+++ (survival rate (%)≤30)	+ (60≤survival rate (%)<90)	+++ (survival rate (%)≤30)	100 to 1000 µM							
CC(C)[C@H](NC(=O)CN1CCN(CCNC=C2C(=O)CC(c3ccccc3)CC2=O)CC1)C(=O)N[C@@H](CCCNC(N)=O)C(=O)Nc1ccc(COC(=O)Nc2cccc3c2CN(C2CCC(=O)NC2=O)C3=O)cc1 (stereo partly drawn) [Compound 90]	++ (30<survival rate (%)≤60)	+++ (survival rate (%)≤30)	++ (30<survival rate (%)≤60)	+++ (survival rate (%)≤30)	++ (30<survival rate (%)≤60)	++ (30<survival rate (%)≤60)	15 to 100 µM							
O=C1CCC(N2C(=O)c3cccc(NC(=O)CNC=C4C(=O)CC(c5ccccc5)CC4=O)c3C2=O)C(=O)N1 (stereo not drawn) [Compound 49]	++ (30<survival rate (%)≤60)	++ (30<survival rate (%)≤60)	++ (30<survival rate (%)≤60)		+ (60≤survival rate (%)<90)	++ (30<survival rate (%)≤60)	100 to 1000 µM							
